Assay results taken from US10813356B2, “Herbicidal composition comprising cinmethylin and dimethenamid” (BASF Agro B.V., priority 2015, dated 2020).

How the values were obtained:
Details in all cases: 20 DAT
ABUTH = assay: Greenhouse preemergence herbicidal activity; format: in vivo, Abutilon theophrasti
Experimental: (§1) The test plants have been seeded, separately for each species, in plastic containers in sandy loamy soil containing 5% of organic matter.
(§2) The containers were irrigated gently to promote germination and growth and subsequently covered with transparent plastic hoods until the plants had rooted.
(§3) The plants have been cultivated due to their individual requirements at 10-25° C. and 20-35° C.
(§4) The plants were irrigated due to their necessity.
(§5) The racemic mixture (±)-2-exo-(2-Methylbenzyloxy)-1-methyl-4-isopropyl-7-oxabicyclo[2.2.1]heptane was used as herbicide A and formulated as emulsifiable concentrates with an active ingredient concentration of 50 g/l, 100 g/l or 750 g/l respectively.
(§6) Dimethenamid-P was used as emulsifiable concentrate (EC) formulation having an active ingredient concentration of 720 g/l.
(§7) In the following experiments, the herbicidal activity for the individual herbicidal compositions (solo and mixture applications) was assessed 20 days after treatment (DAT).
(§8) The evaluation for the damage on undesired weeds caused by the chemical compositions was carried out using a scale from 0 to 100%, compared to the untreated control plants. Here, 0 means no damage and 100 means complete destruction of the plants.
(§9) E=X+Y−(X·Y/100) where X=effect in percent using herbicide A at an application rate a; • Y=effect in percent using herbicide B at application rate b; • E=expected effect (in %) of herbicide A+herbicide B at application rates a+b.
(§10) The value E corresponds to the effect (plant damage or injury) which is to be expected if the activity of the individual compounds is additive. If the observed effect is higher than the value E calculated according to the Colby equation, a synergistic effect is present.

ANTAR [1] = assay: Greenhouse preemergence herbicidal activity; format: in vivo, Anthemis arvensis
Experimental: as §1, §2, §3, §4, §5, §6, §7, §8, §9, §10

ANTAR [2] = assay: Greenhouse postemergence herbicidal activity; format: in vivo, Anthemis arvensis
Experimental: as §1
(§11) For the post emergence treatment, the plants were first grown to the 2 leaf station (GS 12). Here, the herbicidal compositions were suspended or emulsified in water as distribution medium and sprayed using finely distributing nozzles.
as §3, §4, §5, §6, §7, §8, §9, §10

AMBEL = assay: Greenhouse preemergence herbicidal activity; format: in vivo, Ambrosia elatior
Experimental: as §1, §2, §3, §4, §5, §6
(§12) In the following experiments, the herbicidal activity for the individual herbicidal compositions (solo and mixture applications) was assessed 20 days after treatment (DAT). […]
as §10

ALOMY = assay: Greenhouse preemergence herbicidal activity; format: in vivo, Alopecurus myosuroides
Experimental: as §1, §2, §3, §4, §5, §6, §12, §10

BRSNW = assay: Greenhouse postemergence herbicidal activity; format: in vivo, Brassica napus
Experimental: as §1, §11, §3, §4, §5, §6, §12, §10

AVEFA = assay: Greenhouse preemergence herbicidal activity; format: in vivo, Avena fatua
Experimental: as §1, §2, §3, §4, §5, §6, §7, §8, §9, §10

POLCO = assay: Greenhouse preemergence herbicidal activity; format: in vivo, Polygonum convolvulus
Experimental: as §1, §2, §3, §4, §5, §6, §7, §8, §9, §10

THLAR = assay: Greenhouse preemergence herbicidal activity; format: in vivo, Thlaspi arvense
Experimental: as §1, §2, §3, §4, §5, §6, §7, §8, §9, §10

GALAP = assay: Greenhouse preemergence herbicidal activity; format: in vivo, Galium aparine
Experimental: as §1, §2, §3, §4, §5, §6, §7, §8, §9, §10

SSYOF = assay: Greenhouse preemergence herbicidal activity; format: in vivo, Sisymbrium officinale
Experimental: as §1, §2, §3, §4, §5, §6, §7, §8, §9, §10

HELAN = assay: Greenhouse preemergence herbicidal activity; format: in vivo, Helianthus annuus
Experimental: as §1, §2, §3, §4, §5, §6, §12, §10

SORHA = assay: Greenhouse preemergence herbicidal activity; format: in vivo, Sorghum halepense
Experimental: as §1, §2, §3, §4, §5, §6, §7, §8, §9, §10

[3] = solo Dimethenamid-P 125 g ai/ha
[4] = solo Dimethenamid-P 250 g ai/ha
[5] = solo Dimethenamid-P 37.5 g ai/ha
[6] = solo Dimethenamid-P 62.5 g ai/ha
[7] = solo Dimethenamid-P 150 g ai/ha
[8] = solo Dimethenamid-P 300 g ai/ha
[9] = solo Dimethenamid-P 500 g ai/ha

Q: `COC[C@H](C)N(C(=O)CCl)c1c(C)csc1C` [Dimethenamid-P, (S)-2-chloro-N-(2,4-dimethyl-3-thienyl)-N-(2-methoxy-1-methylethyl)acetamide] was tested. Which herbicidal activity (ABUTH; [3]) did it give?
A: The herbicidal activity was 10%.

Q: What about the herbicidal activity (ABUTH; [4]) of the same molecule?
A: Its herbicidal activity is 25%.

Q: And the herbicidal activity (ANTAR [1]; [5])?
A: The herbicidal activity was 20%.

Q: What about the herbicidal activity (ANTAR [1]; [6]) of the same molecule?
A: Its herbicidal activity is 75%.

Q: What about the herbicidal activity (ANTAR [1]; solo Dimethenamid-P 75 g ai/ha) of the same molecule?
A: The herbicidal activity was 50%.

Q: What about the herbicidal activity (ANTAR [1]; [3]) of the same molecule?
A: The herbicidal activity was 95%.

Q: What about the herbicidal activity (ANTAR [1]; [7]) of the same molecule?
A: Its herbicidal activity is 85%.

Q: And the herbicidal activity (ANTAR [1]; [4])?
A: The herbicidal activity was 98%.

Q: And the herbicidal activity (ANTAR [1]; [8])?
A: Its herbicidal activity is 90%.

Q: And the herbicidal activity (ANTAR [2]; [5])?
A: Its herbicidal activity is 0%.

Q: What about the herbicidal activity (ANTAR [2]; solo Dimethenamid-P 75 g ai/ha) of the same molecule?
A: Its herbicidal activity is 0%.

Q: What about the herbicidal activity (ANTAR [2]; [7]) of the same molecule?
A: The herbicidal activity was 35%.

Q: And the herbicidal activity (ANTAR [2]; [8])?
A: Its herbicidal activity is 45%.

Q: And the herbicidal activity (AMBEL; [3])?
A: Its herbicidal activity is 35%.

Q: And the herbicidal activity (ALOMY; [6])?
A: The herbicidal activity was 25%.

Q: And the herbicidal activity (BRSNW; solo Dimethenamid-P 75 g ai/ha)?
A: Its herbicidal activity is 20%.

Q: And the herbicidal activity (AVEFA; [5])?
A: Its herbicidal activity is 0%.

Q: What about the herbicidal activity (AVEFA; [6]) of the same molecule?
A: Its herbicidal activity is 0%.

Q: What about the herbicidal activity (AVEFA; solo Dimethenamid-P 75 g ai/ha) of the same molecule?
A: Its herbicidal activity is 0%.

Q: What about the herbicidal activity (AVEFA; [3]) of the same molecule?
A: Its herbicidal activity is 25%.

Q: And the herbicidal activity (POLCO; [5])?
A: Its herbicidal activity is 0%.

Q: And the herbicidal activity (POLCO; [6])?
A: The herbicidal activity was 0%.

Q: And the herbicidal activity (POLCO; solo Dimethenamid-P 75 g ai/ha)?
A: The herbicidal activity was 0%.

Q: And the herbicidal activity (POLCO; [3])?
A: The herbicidal activity was 0%.

Q: What about the herbicidal activity (POLCO; [4]) of the same molecule?
A: Its herbicidal activity is 30%.

Q: And the herbicidal activity (POLCO; [9])?
A: Its herbicidal activity is 60%.

Q: And the herbicidal activity (THLAR; [3])?
A: The herbicidal activity was 40%.

Q: And the herbicidal activity (THLAR; [4])?
A: Its herbicidal activity is 70%.

Q: What about the herbicidal activity (THLAR; [9]) of the same molecule?
A: Its herbicidal activity is 90%.

Q: And the herbicidal activity (GALAP; [6])?
A: The herbicidal activity was 20%.

Q: And the herbicidal activity (GALAP; [7])?
A: Its herbicidal activity is 70%.

Q: And the herbicidal activity (GALAP; [4])?
A: Its herbicidal activity is 75%.

Q: What about the herbicidal activity (GALAP; [8]) of the same molecule?
A: Its herbicidal activity is 75%.

Q: What about the herbicidal activity (GALAP; [9]) of the same molecule?
A: Its herbicidal activity is 80%.

Q: And the herbicidal activity (SSYOF; [6])?
A: The herbicidal activity was 0%.

Q: And the herbicidal activity (SSYOF; [3])?
A: Its herbicidal activity is 70%.

Q: What about the herbicidal activity (SSYOF; [4]) of the same molecule?
A: The herbicidal activity was 98%.

Q: What about the herbicidal activity (HELAN; [9]) of the same molecule?
A: Its herbicidal activity is 30%.

Q: And the herbicidal activity (SORHA; [5])?
A: The herbicidal activity was 30%.

Q: And the herbicidal activity (SORHA; solo Dimethenamid-P 75 g ai/ha)?
A: The herbicidal activity was 70%.

Q: What does the source list for “(±)-2-exo-(2-Methylbenzyloxy)-1-methyl-4-isopropyl-7-oxabicyclo[2.2.1]heptane [herbicide A]”?
A: herbicidal activity (ABUTH; solo herbicide A 62.5 g ai/ha): 55%; herbicidal activity (ABUTH; solo herbicide A 125 g ai/ha): 65%; herbicidal activity (ANTAR [1]; solo herbicide A 31.25 g ai/ha): 0%; herbicidal activity (ANTAR [1]; solo herbicide A 250 g ai/ha): 40%; herbicidal activity (ANTAR [1]; solo herbicide A 500 g ai/ha): 65%; herbicidal activity (ANTAR [2]; solo herbicide A 62.5 g ai/ha): 0%; herbicidal activity (ANTAR [2]; solo herbicide A 125 g ai/ha): 0%; herbicidal activity (ANTAR [2]; solo herbicide A 250 g ai/ha): 40%; herbicidal activity (ANTAR [2]; solo herbicide A 500 g ai/ha): 65%; herbicidal activity (AMBEL; solo herbicide A 62.5 g ai/ha): 0%; herbicidal activity (ALOMY; solo herbicide A 31.25 g ai/ha): 85%; herbicidal activity (BRSNW; solo herbicide A 125 g ai/ha): 0%; herbicidal activity (AVEFA; solo herbicide A 31.25 g ai/ha): 0%; herbicidal activity (AVEFA; solo herbicide A 125 g ai/ha): 50%; herbicidal activity (POLCO; solo herbicide A 31.25 g ai/ha): 0%; herbicidal activity (POLCO; solo herbicide A 62.5 g ai/ha): 0%; herbicidal activity (POLCO; solo herbicide A 125 g ai/ha): 0%; herbicidal activity (POLCO; solo herbicide A 250 g ai/ha): 0%; herbicidal activity (THLAR; solo herbicide A 62.5 g ai/ha): 65%; herbicidal activity (THLAR; solo herbicide A 125 g ai/ha): 75%; herbicidal activity (THLAR; solo herbicide A 500 g ai/ha): 90%; herbicidal activity (GALAP; solo herbicide A 31.25 g ai/ha): 0%; herbicidal activity (GALAP; solo herbicide A 125 g ai/ha): 20%; herbicidal activity (GALAP; solo herbicide A 250 g ai/ha): 65%; herbicidal activity (GALAP; solo herbicide A 500 g ai/ha): 80%; herbicidal activity (SSYOF; solo herbicide A 31.25 g ai/ha): 0%; herbicidal activity (SSYOF; solo herbicide A 62.5 g ai/ha): 0%; herbicidal activity (SSYOF; solo herbicide A 125 g ai/ha): 50%; herbicidal activity (HELAN; solo herbicide A 125 g ai/ha): 0%; herbicidal activity (SORHA; solo herbicide A 62.5 g ai/ha): 80%; herbicidal activity (SORHA; solo herbicide A 125 g ai/ha): 90%
